Measured values as given in US20260297060A1, “COMPOUNDS FOR THE DEGRADATION OF MUTANT BRAF” (C4 THERAPEUTICS, INC., priority 2023, published 2026).

Tested on: A375 tumors
Test: In vivo efficacy, A375 xenograft tumor volume (Example 8)
Design: species or system human A375 melanoma xenograft in female BALB/c nude mice
Conditions: oral, FIG. 22
Method: FIG. 22 is a line graph showing in vivo efficacy of encorafenib, Compound 8, Compound 26, and Compound 38 in the treatment of female BALB/c nude mice bearing A375 tumors. Mice were treated with vehicle (10 μL/g, p.o., BID), encorafenib (35 mg/kg, p.o., QD), Compound 8 (10 mg/kg, p.o., BID), Compound 26 (10 mg/kg, p.o., BID), or Compound 38 (10 mg/kg, p.o., BID) by oral gavage (p.o.). Data points represent group mean change in tumor volume. Error bars represent standard error of the mean (SEM). The x-axis is the time measured in days and the y-axis is A375 tumor volume measured in mm^3. The experiment was conducted as described in Example 8.

CCN(C)S(=O)(=O)Nc1ccc(F)c(Oc2ccc3ncn(C4CC5(CCN(C6CCC(c7cc8c(cc7F)c(N7CCC(=O)NC7=O)nn8C)CC6)CC5)C4)c(=O)c3c2)c1C#N (single isomer, unassigned) [Compound 8, 6-[2-cyano-3-[[ethyl(methyl)sulfamoyl]amino]-6-fluoro-phenoxy]-3-[7-[4-[3-(2,4-dioxohexahydropyrimidin-1-yl)-5-fluoro-1-methyl-indazol-6-yl]cyclohexyl]-7-azaspiro[3.5]nonan-2-yl]-4-oxo-quinazoline]
tumor regressions in the xenograft model (10 mg/kg BID, A375 xenografts): profound tumor regressions | antitumor response compared with comparators dabrafenib or encorafenib (A375 human melanoma xenografts): more robust antitumor response
